Experimental data taken from US20150148234A1, “HERBICIDE-RESISTANT SUNFLOWER PLANTS WITH MULTIPLE HERBICIDE RESISTANT ALLELES OF AHASL1 AND METHODS OF USE” (NIDERA S.A., priority 2013, published 2015).
Where “and” joins values, the source holds several entries; their conditions need not be identical. Equal entries are not always repeated. Marks after values point to notes of the source that are not given here.

Legend:
Assay in all cases: metsulfuron whole plant greenhouse test (Example 5)
Type in all cases: in vivo
[1] = tested on: sunflower cmsGM40xBTSu-R1, A122T/P197L; details: 14 DAT; for Dry Matter accumulation (DMA) / Mean Height Reduction (PH): percentage of untreated control
Protocol: (§1) Seeds were sown in Petri dishes and, after germination, plantlets were transplanted into 10 cm pots containing potting media consisting of equal parts of vermiculite, soil, and sand. Plants were grown in the greenhouse under natural light conditions supplemented with 400 W sodium halide lamps to provide a 16 hr daylength. Day/night temperatures were 25 and 20° C., respectively. At the V2-V4 stage (Schneiter & Miller, 1981) 20 plants of each genotype were randomly assigned to each treatment consisting of three metsulfuron methyl doses (0 or no treatment, 5 g ai/ha or a 1× rate, and 10 g ai/ha or a 2× rate). A zero-time biomass determination was also conducted. The experiment was arranged as a randomized complete block design (RCBD) with a full factorial arrangement of treatments and 20 replications (sunflower line×treatment).
(§2) For the zero-time dried weight determination, ten plants of each genotype were cut at the cotyledonal node on the day of herbicide application and dried at 60° C. for 48 hr. The rest of the plants were maintained for 14 days after herbicide treatment (DAT) and their height, Phytotoxicity Index (PI) and above ground dry biomass were recorded. Height was determined as the distance between the cotyledonal node and the apex of each plant. The above ground biomass data for each line was converted to biomass accumulation after application by subtracting the appropriate average zero-time biomass from each sample. Height and dry biomass were converted to a percentage of the untreated control for each line to allow direct comparisons between groups.
(§3) The data was subjected to an ANOVA and the means were compared by an LSD test.

[2] = tested on: sunflower line GM1606, A122T/A122T; details: 14 DAT; for Dry Matter accumulation (DMA) / Mean Height Reduction (PH): percentage of untreated control
Protocol: as §1, §2, §3

[3] = tested on: sunflower line L4, A122T/A122T; details: 14 DAT; for Dry Matter accumulation (DMA) / Mean Height Reduction (PH): percentage of untreated control
Protocol: as §1, §2, §3

[4] = tested on: sunflower line BTSu-R1, P197L/P197L; details: 14 DAT, percentage of untreated control
Protocol: as §1, §2, §3

[5] = tested on: sunflower line B770, WT; details: 14 DAT
Protocol: as §1, §2, §3

[6] = tested on: sunflower cmsGM40xL4, A122T/A122T; details: 14 DAT; for Dry Matter accumulation (DMA) / Mean Height Reduction (PH): percentage of untreated control
Protocol: as §1, §2, §3

[7] = tested on: sunflower line GM40, A122T/A122T; details: 14 DAT; for Dry Matter accumulation (DMA) / Mean Height Reduction (PH): percentage of untreated control
Protocol: as §1, §2, §3

[8] = 2X (10 g ai./ha), percentage of untreated control

How did the “Phytotoxicity Index (PI) (0-9)” value ([1]; 1X (5g ai./ha)) turn out when `COC(=O)c1ccccc1S(=O)(=O)NC(=O)Nc1nc(C)nc(OC)n1` [metsulfuron] was run?
The value was 0.00 ^a.

What about the “Dry Matter accumulation (DMA)” value ([1]; 1X (5g ai./ha)) of the same compound?
Its value is 74.4% and 74.36 ^c %.

What about the “Mean Height Reduction (PH)” value ([1]; 1X (5g ai./ha)) of the same compound?
The value was 77.04 ^b %.

What about the “Dry Matter accumulation (DMA)” value ([1]; 2X (10 g ai./ha)) of the same compound?
The value was 72.66 ^c %.

And the “Mean Height Reduction (PH)” value ([1]; 2X (10 g ai./ha))?
Its value is 62% and 61.99 ^b %.

What about the “Phytotoxicity Index (PI) (0-9)” value ([2]; 1X (5g ai./ha)) of the same compound?
Its value is 8.70 ^d.

And the “Dry Matter accumulation (DMA)” value ([2]; 1X (5g ai./ha))?
The value was 30.39 ^b %.

And the “Mean Height Reduction (PH)” value ([2]; 1X (5g ai./ha))?
Its value is 21.55 ^a %.

What about the “Phytotoxicity Index (PI) (0-9)” value ([2]; 2X (10 g ai./ha)) of the same compound?
The value was 9.00 ^d.

And the “Dry Matter accumulation (DMA)” value ([2]; 2X (10 g ai./ha))?
The value was 20.45 ^a %.

What about the “Mean Height Reduction (PH)” value ([2]; 2X (10 g ai./ha)) of the same compound?
Its value is 21.70 ^a %.

And the “Phytotoxicity Index (PI) (0-9)” value ([3]; 1X (5g ai./ha))?
Its value is 8.25 ^b.

And the “Dry Matter accumulation (DMA)” value ([3]; 1X (5g ai./ha))?
Its value is 25.40 ^ab %.

What about the “Mean Height Reduction (PH)” value ([3]; 1X (5g ai./ha)) of the same compound?
Its value is 19.47 ^a %.

And the “Phytotoxicity Index (PI) (0-9)” value ([3]; 2X (10 g ai./ha))?
The value was 8.5 ^c.

And the “Dry Matter accumulation (DMA)” value ([3]; 2X (10 g ai./ha))?
The value was 18.80 ^a %.

What about the “Mean Height Reduction (PH)” value ([3]; 2X (10 g ai./ha)) of the same compound?
The value was 18.73 ^a %.

And the “Dry Matter accumulation (DMA)” value ([4]; 1X (5g ai./ha))?
The value was 88% and 88.1% and 88.10 ^d %.

What about the “Plant height, % of untreated control” value ([4]; 1X (5g ai./ha)) of the same compound?
The value was 79.01 ^b %.

And the “Dry Matter accumulation (DMA)” value ([4]; 2X (10 g ai./ha))?
Its value is 77% and 76.69 ^c %.

What about the “Plant height, % of untreated control” value ([4]; 2X (10 g ai./ha)) of the same compound?
Its value is 80.85 ^c %.

And the “Phytotoxicity Index (PI) (0-9)” value ([5]; 1X (5g ai./ha))?
Its value is 8.50 ^bc.

And the “Dry Matter accumulation (DMA)” value ([5]; 1X (5g ai./ha), percentage of untreated control)?
The value was 28.43 ^b %.

What about the “Phytotoxicity Index (PI) (0-9)” value ([5]; 2X (10 g ai./ha)) of the same compound?
The value was 9.00 ^d.

What about the “Dry Matter accumulation (DMA)” value [5, 8] of the same compound?
Its value is 28.77 ^b %.

And the “Mean Height Reduction (PH)” value [5, 8]?
Its value is 18.20 ^a %.

What about the “Phytotoxicity Index (PI) (0-9)” value ([6]; 1X (5g ai./ha)) of the same compound?
Its value is 8.67 ^d.

What about the “Dry Matter accumulation (DMA)” value ([6]; 1X (5g ai./ha)) of the same compound?
Its value is 19.90 ^a %.

What about the “Mean Height Reduction (PH)” value ([6]; 1X (5g ai./ha)) of the same compound?
The value was 22.45 ^a %.

What about the “Phytotoxicity Index (PI) (0-9)” value ([6]; 2X (10 g ai./ha)) of the same compound?
The value was 8.82 ^cd.

What about the “Dry Matter accumulation (DMA)” value ([6]; 2X (10 g ai./ha)) of the same compound?
The value was 18.23 ^a %.

What about the “Mean Height Reduction (PH)” value ([6]; 2X (10 g ai./ha)) of the same compound?
Its value is 20.56 ^a %.

And the “Phytotoxicity Index (PI) (0-9)” value ([7]; 1X (5g ai./ha))?
The value was 9.00 ^d.

What about the “Dry Matter accumulation (DMA)” value ([7]; 1X (5g ai./ha)) of the same compound?
Its value is 25.73 ^ab %.

And the “Mean Height Reduction (PH)” value ([7]; 1X (5g ai./ha))?
The value was 21.39 ^a %.

What about the “Phytotoxicity Index (PI) (0-9)” value ([7]; 2X (10 g ai./ha)) of the same compound?
Its value is 9.00 ^d.

What about the “Dry Matter accumulation (DMA)” value ([7]; 2X (10 g ai./ha)) of the same compound?
Its value is 20.69 ^a %.

What about the “Mean Height Reduction (PH)” value ([7]; 2X (10 g ai./ha)) of the same compound?
Its value is 21.17 ^a %.
